Measured values published in US20180250280A1 (BAYER PHARMA AKTIENGESELLSCHAFT, priority 2015, published 2018).

Columns and labels:
human factor XIa = biological target: T1, human factor XIa (Homo sapiens, UniProt P03951); test: Measurement of FXIa inhibition (fluorogenic peptide substrate, AMC cleavage); assay type: biochemical; settings: factor XIa from Kordia 0.45 nM; substrate Boc-Glu(OBzl)-Ala-Arg-AMC 10 μM; 30 min at 22° C.; in some cases averages from multiple determinations
T1 construct: purchased Kordia
T1 sequence (P03951 388-625 limits assumed): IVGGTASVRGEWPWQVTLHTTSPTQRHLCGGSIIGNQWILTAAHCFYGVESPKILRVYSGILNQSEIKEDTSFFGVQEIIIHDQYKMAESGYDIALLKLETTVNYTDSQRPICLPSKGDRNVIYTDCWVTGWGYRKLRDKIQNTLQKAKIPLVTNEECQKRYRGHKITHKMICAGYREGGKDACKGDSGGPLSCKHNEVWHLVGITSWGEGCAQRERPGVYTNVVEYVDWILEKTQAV
T1 sequence (P03951 19-387 partner limits assumed): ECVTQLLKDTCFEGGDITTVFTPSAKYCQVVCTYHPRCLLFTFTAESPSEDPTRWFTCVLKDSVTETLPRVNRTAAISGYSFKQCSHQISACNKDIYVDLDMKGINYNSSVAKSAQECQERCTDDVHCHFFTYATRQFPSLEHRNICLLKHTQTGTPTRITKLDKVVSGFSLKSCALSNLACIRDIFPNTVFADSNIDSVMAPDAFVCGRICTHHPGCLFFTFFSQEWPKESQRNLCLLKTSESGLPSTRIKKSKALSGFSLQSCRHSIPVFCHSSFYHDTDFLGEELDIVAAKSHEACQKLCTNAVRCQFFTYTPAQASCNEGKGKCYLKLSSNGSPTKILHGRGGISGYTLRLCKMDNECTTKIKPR
Description: (§1) The factor XIa inhibition of the substances according to the invention is determined using a biochemical test system which utilizes the reaction of a peptidic factor XIa substrate to determine the enzymatic activity of human factor XIa. Here, factor XIa cleaves from the peptic factor XIa substrate the C-terminal aminomethylcoumarin (AMC), the fluorescence of which is measured. The determinations are conducted in microtitre plates.
Test substances are dissolved in dimethyl sulfoxide and serially diluted in dimethyl sulfoxide (3000 μM to 0.0078 μM; resulting final concentrations in the test: 50 μM to 0.00013 μM). 1 μl of the diluted substance solutions is placed into each of the wells of white microtitre plates from Greiner (384 wells). 20 μl of assay buffer (50 mM of Tris/HCl pH 7.4; 100 mM of sodium chloride; 5 mM of calcium chloride; 0.1% of bovine serum albumin) and 20 μl of factor XIa from Kordia (0.45 nM in assay buffer) are then added successively. After 15 min of incubation, the enzyme reaction is started by addition of 20 μl of the factor XIa substrate Boc-Glu(OBzl)-Ala-Arg-AMC dissolved in assay buffer (10 μM in assay buffer) from Bachem, the mixture is incubated at room temperature (22° C.) for 30 min and fluorescence is then measured (excitation: 360 nm, emission: 460 nm). The measured emissions of the test batches with test substance are compared to those of control batches without test substance (only dimethyl sulfoxide instead of test substance in dimethyl sulfoxide), and IC50 values are calculated from the concentration/activity relationships. Activity data from this test are given in Table A below (in some cases as averages from multiple individual determinations): […]

human plasma kallikrein = biological target: T2, human plasma kallikrein (Homo sapiens, UniProt P03952); test: Determination of the plasma kallikrein activity (fluorogenic peptide substrate, AMC cleavage); assay type: biochemical; settings: plasma kallikrein from Kordia 0.6 nM; substrate H-Pro-Phe-Arg-AMC 10 μM; 30 min at 22° C.; in some cases averages from multiple determinations
T2 construct: purchased Kordia
T2 sequence (P03952 391-638 limits assumed): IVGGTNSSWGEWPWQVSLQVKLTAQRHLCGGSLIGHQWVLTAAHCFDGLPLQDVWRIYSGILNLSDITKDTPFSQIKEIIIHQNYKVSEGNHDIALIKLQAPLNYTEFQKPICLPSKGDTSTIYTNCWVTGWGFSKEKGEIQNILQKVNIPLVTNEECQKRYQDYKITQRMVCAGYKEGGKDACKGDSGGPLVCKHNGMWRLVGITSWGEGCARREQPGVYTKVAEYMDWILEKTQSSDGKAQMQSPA
T2 sequence (P03952 20-390 partner limits assumed): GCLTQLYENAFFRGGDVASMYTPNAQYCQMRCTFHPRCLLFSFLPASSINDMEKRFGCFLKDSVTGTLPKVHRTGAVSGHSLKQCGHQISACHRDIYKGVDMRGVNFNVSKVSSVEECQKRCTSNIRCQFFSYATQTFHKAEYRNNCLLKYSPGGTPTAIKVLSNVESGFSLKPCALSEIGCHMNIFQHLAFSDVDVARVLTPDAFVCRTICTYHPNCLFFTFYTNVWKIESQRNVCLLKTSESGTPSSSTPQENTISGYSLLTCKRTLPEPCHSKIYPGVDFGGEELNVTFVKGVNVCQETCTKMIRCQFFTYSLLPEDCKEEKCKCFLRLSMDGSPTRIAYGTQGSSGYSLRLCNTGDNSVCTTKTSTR
Description: as §1, with “To determine the plasma kallikrein” for “The factor XIa”, “invention,” for “invention is determined using”, “system is used” for “system”, “plasma kallikrein” for “factor XIa”, “plasma kallikrein.” for “factor XIa.”
Test substances are dissolved in dimethyl sulfoxide and serially diluted in dimethyl sulfoxide (3000 μM to 0.0078 μM; resulting final concentrations in the test: 50 μM to 0.00013 μM). 1 μl of the diluted substance solutions is placed into each of the wells of white microtitre plates from Greiner (384 wells). 20 μl of assay buffer (50 mM Tris/HCl pH 7.4; 100 mM sodium chloride solution; 5 mM calcium chloride solution; 0.1% of bovine serum albumin) and 20 μl of plasma kallikrein from Kordia (0.6 nM in assay buffer) are then added successively. After 15 min of incubation, the enzyme reaction is started by addition of 20 μl of the substrate H-Pro-Phe-Arg-AMC dissolved in assay buffer (10 μM in assay buffer) from Bachem, the mixture is incubated at room temperature (22° C.) for 30 min and fluorescence is then measured (excitation: 360 nm, emission: 460 nm). The measured emissions of the test batches with test substance are compared to those of control batches without test substance (only dimethyl sulfoxide instead of test substance in dimethyl sulfoxide), and IC50 values are calculated from the concentration/activity relationships. Activity data from this test are given in Table B below (in some cases as averages from multiple individual determinations): […]

IC50 (human factor XIa) [nM] | IC50 (human plasma kallikrein) [nM] | Compound
1.3 | 14 | CNC(=O)c1ccc(NC(=O)C(CC2COCCO2)n2cc(OC)c(-c3cc(Cl)ccc3OCC(F)(F)F)cc2=O)cn1 (single isomer, unassigned) [Example 63, 5-{[2-{4-[5-Chloro-2-(2,2,2-trifluoroethoxy)phenyl]-5-methoxy-2-oxopyridin-1(2H)-yl}-3-(1,4-dioxan-2-yl)propanoyl]amino}-N-methylpyridine-2-carboxamide]
18 | 170 | CNC(=O)c1ccc(NC(=O)C(C[C@H]2CCCCO2)n2cc(OC)c(-c3cc(Cl)ccc3OCC(F)(F)F)cc2=O)cn1 (stereo partly drawn) [Example 22, 5-[(2-{4-[5-Chloro-2-(2,2,2-trifluoroethoxy)phenyl]-5-methoxy-2-oxopyridin-1(2H)-yl}-3-[(2R)-tetrahydro-2H-pyran-2-yl]propanoyl)amino]-N-methylpyridine-2-carboxamide]
1.6 | 80 | COc1cn(C(CC2COCCO2)C(=O)Nc2ccc(C(=O)O)cc2)c(=O)cc1-c1cc(Cl)ccc1OCC(F)F (centres unmarked) [Example 29, 4-{[2-{4-[5-Chloro-2-(2,2-difluoroethoxy)phenyl]-5-methoxy-2-oxopyridin-1(2H)-yl}-3-(1,4-dioxan-2-yl)propanoyl]amino}benzoic acid]
16 | 150 | COc1cn(C(C[C@H]2CCCCO2)C(=O)Nc2ccc3nn(C)cc3c2)c(=O)cc1-c1cc(Cl)ccc1OCC(F)(F)F (stereo partly drawn) [Example 21, 2-{4-[5-Chloro-2-(2,2,2-trifluoroethoxy)phenyl]-5-methoxy-2-oxopyridin-1(2H)-yl}-N-(2-methyl-2H-indazol-5-yl)-3-[(2R)-tetrahydro-2H-pyran-2-yl]propanamide]
7.1 | 120 | COc1cn(C(C[C@H](C)OC)C(=O)Nc2ccc(C(N)=O)nc2)c(=O)cc1-c1cc(Cl)ccc1OCC(F)(F)F (stereo partly drawn) [Example 56, 5-[[(4S)-2-[4-[5-Chloro-2-(2,2,2-trifluoroethoxy)phenyl]-5-methoxy-2-oxo-1-pyridyl]-4-methoxypentanoyl]amino]pyridine-2-carboxamide]
36 | 59 | CCCC(C(=O)Nc1ccc2nccnc2c1)n1cc(OC)c(-c2cc(Cl)ccc2OCC(F)(F)F)cc1=O (racemic) [Example 64, N-(Quinoxalin-6-yl)-2-{4-[5-chloro-2-(2,2,2-trifluoroethoxy)phenyl]-5-methoxy-2-oxopyridin-1(2H)-yl}pentanamide]
2.5 | 120 | COc1cn(C(C[C@H]2CCCCO2)C(=O)Nc2ccc(C(=O)O)cc2)c(=O)cc1-c1cc(Cl)ccc1OCC(F)(F)F (stereo partly drawn) [Example 20, 4-[(2-{4-[5-Chloro-2-(2,2,2-trifluoroethoxy)phenyl]-5-methoxy-2-oxopyridin-1(2H)-yl}-3-[(2R)-tetrahydro-2H-pyran-2-yl]propanoyl)amino]benzoic acid]
2.2 | 23 | COc1cn(C(C[C@@H]2CCCCO2)C(=O)Nc2ccc3nc(C(=O)O)cn3c2)c(=O)cc1-c1cc(Cl)ccc1OCC(F)(F)F (some centres unmarked) [Example 77]
3 | 320 | COc1cn(C(CC2COCCO2)C(=O)Nc2ccc(C(=O)O)cc2)c(=O)cc1-c1cc(Cl)ccc1OCCF (centres unmarked) [Example 44, 4-{[2-{4-[5-Chloro-2-(2-fluoroethoxy)phenyl]-5-methoxy-2-oxopyridin-1(2H)-yl}-3-(1,4-dioxan-2-yl)propanoyl]amino}benzoic acid]
7.9 | 72 | COc1cn(C(C[C@H](C)OC)C(=O)Nc2ccc3nn(C)cc3c2)c(=O)cc1-c1cc(Cl)ccc1OCC(F)(F)F (mixture of isomers) [Example 37, (4S)-2-{4-[5-Chloro-2-(2,2,2-trifluoroethoxy)phenyl]-5-methoxy-2-oxopyridin-1(2H)-yl}-4-methoxy-N-(2-methyl-2H-indazol-5-yl)pentanamide]

The next lines start with the compound.

Compound | IC50 (human factor XIa) [nM] | IC50 (human plasma kallikrein) [nM]
COc1cn(C(CCOC(C)(C)C)C(=O)Nc2ccc(C(N)=O)c(F)c2)c(=O)cc1-c1cc(Cl)ccc1OCC(F)F (racemic) [Example 26, 4-[(4-tert-Butoxy-2-{4-[5-chloro-2-(2,2-difluoroethoxy)phenyl]-5-methoxy-2-oxopyridin-1(2H)-yl}butanoyl)amino]-2-fluorobenzamide] | 25 | 150
COc1cc(NC(=O)C(CCOC(C)(C)C)n2cc(OC)c(-c3cc(Cl)ccc3OCC(F)(F)F)cc2=O)ccc1C(=O)O (racemic) [Example 74, 4-{[4-tert-Butoxy-2-{4-[5-chloro-2-(2,2,2-trifluoroethoxy)phenyl]-5-methoxy-2-oxopyridin-1(2H)-yl}butanoyl]amino}-2-methoxybenzoic acid] | 6.9 | 210
COc1cn(C(CCOC(C)(C)C)C(=O)Nc2ccc(C(N)=O)nc2)c(=O)cc1-c1cc(Cl)ccc1OCC(F)(F)F (racemic) [Example 11, 5-[(4-tert-Butoxy-2-{4-[5-chloro-2-(2,2,2-trifluoroethoxy)phenyl]-5-methoxy-2-oxopyridin-1(2H)-yl}butanoyl)amino]pyridine-2-carboxamide] | 18 | 87
COc1cn(C(CCOC(C)(C)C)C(=O)Nc2ccc(C(=O)O)cc2)c(=O)cc1-c1cc(Cl)ccc1OCC(F)(F)F (racemic) [Example 7, 4-[(4-tert-Butoxy-2-{4-[5-chloro-2-(2,2,2-trifluoroethoxy)phenyl]-5-methoxy-2-oxopyridin-1(2H)-yl}butanoyl)amino]benzoic acid] | 0.71 | 34
COc1cn(C(CCOC(C)(C)C)C(=O)Nc2ccc(C(=O)O)s2)c(=O)cc1-c1cc(Cl)ccc1OCC(F)(F)F (racemic) [Example 75, 5-{[4-tert-Butoxy-2-{4-[5-chloro-2-(2,2,2-trifluoroethoxy)phenyl]-5-methoxy-2-oxopyridin-1(2H)-yl}butanoyl]amino}thiophene-2-carboxylic acid] | 2.5 | 19
CNC(=O)c1ccc(NC(=O)C(CC2COCCO2)n2cc(OC)c(-c3cc(Cl)ccc3OCCF)cc2=O)cn1 (centres unmarked) [Example 46, 5-{[2-{4-[5-Chloro-2-(2-fluoroethoxy)phenyl]-5-methoxy-2-oxopyridin-1(2H)-yl}-3-(1,4-dioxan-2-yl)propanoyl]amino}-N-methylpyridine-2-carboxamide] | 8.9 | 150
COc1cn(C(CCOC(C)(C)C)C(=O)Nc2ccc3nn(C)cc3c2)c(=O)cc1-c1cc(Cl)ccc1OCC(F)F (racemic) [Example 28, 4-tert-Butoxy-2-{4-[5-chloro-2-(2,2-difluoroethoxy)phenyl]-5-methoxy-2-oxopyridin-1(2H)-yl}-N-(2-methyl-2H-indazol-5-yl)butanamide] | 28 | 120
CNC(=O)c1ccc(NC(=O)C(CCOC2(C)CCC2)n2cc(OC)c(-c3cc(Cl)ccc3OCC(F)(F)F)cc2=O)cn1 (racemic) [Example 57, 5-[[2-[4-[5-Chloro-2-(2,2,2-trifluoroethoxy)phenyl]-5-methoxy-2-oxo-1-pyridyl]-4-(1-methylcyclobutoxy)butanoyl]amino]-N-methylpyridine-2-carboxamide] | 14 | 54
COc1cn(C(CCOC(C)(C)C)C(=O)Nc2ccc3nc(C(=O)O)cn3c2)c(=O)cc1-c1cc(Cl)ccc1OCC(F)(F)F (racemic) [Example 73, 6-{[4-tert-Butoxy-2-{4-[5-chloro-2-(2,2,2-trifluoroethoxy)phenyl]-5-methoxy-2-oxopyridin-1(2H)-yl}butanoyl]amino}imidazo[1,2-a]pyridine-2-carboxylic acid] | 2 | 18
